# Columns and labels:
# corn = assay: Test B pre/postemergence corn; format: in vivo, Zea mays
# How it was run: (§1)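 Response is a visual 0-to-10 score relative to untreated plants, where 0 means no effect and 10 means complete control, taken twelve to sixteen days after application. Treatments went onto soil at planting and onto foliage of 1- to 4-leaf plants, using a surfactant-containing non-phytotoxic solvent.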
# soybean = assay: Test B pre/postemergence soybean; format: in vivo, Glycine max
# How it was run: as §1
# purple nutsedge = assay: Test B pre/postemergence purple nutsedge; format: in vivo, Cyperus rotundus
# How it was run: as §1
# surinam grass = assay: Test B pre/postemergence surinam grass; format: in vivo, Brachiaria decumbens
# How it was run: as §1
# blackgrass = assay: Test B pre/postemergence blackgrass; format: in vivo, Alopecurus myosuroides
# How it was run: as §1
# bamyardgrass = assay: Test B flood test barnyardgrass; format: in vivo, Echinochloa crus-galli
# How it was run: (§2)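 Plants were grown to the 2-leaf stage before treatment with test chemical, then held in a greenhouse for twelve to sixteen days. Injury was visually rated against untreated controls on a 0–10 scale, where 0 is no effect and 10 is complete control.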
# duck salad = assay: Test B flood test duck salad; format: in vivo, Heteranthera limosa
# How it was run: as §2
# crabgrass = assay: Test B pre/postemergence crabgrass; format: in vivo, Digitaria sanguinalis
# How it was run: as §1
# velvetleaf = assay: Test B pre/postemergence velvetleaf; format: in vivo, Abutilon theophrasti
# How it was run: as §1
# rape = assay: Test B pre/postemergence rape; format: in vivo, Brassica napus
# How it was run: as §1
# cocklebur = assay: Test B pre/postemergence cocklebur; format: in vivo, Xanthium strumarium
# How it was run: as §1
# rice = assay: Test B flood test rice; format: in vivo, Oryza sativa
# How it was run: as §2
# smallflower flatsedge = assay: Test B flood test smallflower flatsedge; format: in vivo, Cyperus difformis
# How it was run: as §2
# sugar beet = assay: Test B pre/postemergence sugar beet; format: in vivo, Beta vulgaris
# How it was run: as §1
# bedstraw = assay: Test B pre/postemergence bedstraw; format: in vivo, Galium aparine
# How it was run: as §1
# giant foxtail = assay: Test B pre/postemergence giant foxtail; format: in vivo, Setaria faberii
# How it was run: as §1
# wheat = assay: Test B pre/postemergence wheat; format: in vivo, Triticum aestivum
# How it was run: as §1
# [1] = Postemergence, Rate 31 g/ha, visual rating, scale 0 to 10 (0 no effect, 10 complete control)
# [2] = Preemergence, Rate 31 g/ha, visual rating, scale 0 to 10 (0 no effect, 10 complete control)
# [3] = Preemergence, Rate 62 g/ha, scale of 0 to 10 where 0 is no effect and 10 is complete control
# [4] = Preemergence, Rate 250 g/ha, scale of 0 to 10 where 0 is no effect and 10 is complete control
# [5] = Rate 62 g/ha, Postemergence, scale 0 to 10 (0 no effect, 10 complete control)
# [6] = Rate 125 g/ha, Postemergence, scale of 0 to 10 where 0 is no effect and 10 is complete control
# [7] = Rate 125 g/ha, Preemergence, scale of 0 to 10 where 0 is no effect and 10 is complete control
# [8] = Rate 250 g/ha, Postemergence, scale of 0 to 10 where 0 is no effect and 10 is complete control
# [9] = Rate 31 g/ha, Pre-emergence section (flood test species), scale 0 to 10
# [10] = Rate 62 g/ha, headed Pre-emergence (flood test species), scale 0 to 10 (0 no effect, 10 complete control)
# [11] = Rate 125 g/ha, Pre-emergence, flood test species, scale 0 to 10 where 0 is no effect and 10 is complete control
# [12] = Rate 250 g/ha, Pre-emergence, flood-test species, scale 0 to 10, 0 is no effect, 10 is complete control
smiles,measurement,setting,value
CCOCn1c(=O)on(C(=O)N(c2ccc(F)cc2)C(C)C)c1=O [Compound 295],Corn plant response rating,corn; [1],0
same,Corn plant response rating,corn; [2],0
same,Corn plant response rating,corn; [3],0
same,Corn plant response rating,corn; [4],0
same,Corn plant response rating,corn; [5],0
same,Corn plant response rating,corn; [6],0
same,Corn plant response rating,corn; [7],0
same,"Plant response rating, Corn",corn; [8],0
same,Soybean plant response rating,soybean; [1],1
same,Soybean plant response rating,soybean; [2],0
same,Soybean plant response rating,soybean; [3],0
same,Soybean plant response rating,soybean; [4],0
same,Soybean plant response rating,soybean; [5],2
same,Soybean plant response rating,soybean; [6],2
same,Soybean plant response rating,soybean; [7],0
same,"Plant response rating, Soybean",soybean; [8],4
same,Nutsedge plant response rating,purple nutsedge; [1],0
same,Nutsedge plant response rating,purple nutsedge; [2],0
same,Nutsedge plant response rating,purple nutsedge; [3],0
same,Nutsedge plant response rating,purple nutsedge; [4],0
same,Nutsedge plant response rating,purple nutsedge; [5],0
same,Nutsedge plant response rating,purple nutsedge; [6],0
same,Nutsedge plant response rating,purple nutsedge; [7],0
same,"Plant response rating, Nutsedge",purple nutsedge; [8],0
same,B. signalgrass plant response rating,surinam grass; [1],0
same,B. signalgrass plant response rating,surinam grass; [2],3
same,B. signalgrass plant response rating,surinam grass; [3],6
same,B. signalgrass plant response rating,surinam grass; [4],8
same,B. signalgrass plant response rating,surinam grass; [5],0
same,B. signalgrass plant response rating,surinam grass; [6],0
same,B. signalgrass plant response rating,surinam grass; [7],6
same,"Plant response rating, B. signalgrass",surinam grass; [8],5
same,Blackgrass plant response rating,blackgrass; [1],0
same,Blackgrass plant response rating,blackgrass; [2],4
same,Blackgrass plant response rating,blackgrass; [3],5
same,Blackgrass plant response rating,blackgrass; [4],10
same,Blackgrass plant response rating,blackgrass; [5],2
same,Blackgrass plant response rating,blackgrass; [6],7
same,Blackgrass plant response rating,blackgrass; [7],10
same,"Plant response rating, Blackgrass",blackgrass; [8],9
same,Barnyardgrass plant response rating,bamyardgrass; [9],0
same,Barnyardgrass plant response rating,bamyardgrass; [10],0
same,Barnyardgrass plant response rating,bamyardgrass; [11],0
same,Barnyardgrass plant response rating,bamyardgrass; [12],0
same,Ducksalad plant response rating,duck salad; [9],0
same,Ducksalad plant response rating,duck salad; [10],0
same,Ducksalad plant response rating,duck salad; [11],0
same,Ducksalad plant response rating,duck salad; [12],0
same,Crabgrass plant response rating,crabgrass; [1],0
same,Crabgrass plant response rating,crabgrass; [2],2
same,Crabgrass plant response rating,crabgrass; [3],2
same,Crabgrass plant response rating,crabgrass; [4],7
same,Crabgrass plant response rating,crabgrass; [5],0
same,Crabgrass plant response rating,crabgrass; [6],3
same,Crabgrass plant response rating,crabgrass; [7],7
same,"Plant response rating, Crabgrass",crabgrass; [8],8
same,Velvetleaf plant response rating,velvetleaf; [1],0
same,Velvetleaf plant response rating,velvetleaf; [2],0
same,Velvetleaf plant response rating,velvetleaf; [3],0
same,Velvetleaf plant response rating,velvetleaf; [4],3
same,Velvetleaf plant response rating,velvetleaf; [5],0
same,Velvetleaf plant response rating,velvetleaf; [6],0
same,Velvetleaf plant response rating,velvetleaf; [7],0
same,"Plant response rating, Velvetleaf",velvetleaf; [8],5
same,Rape plant response rating,rape; [1],0
same,Rape plant response rating,rape; [2],0
same,Rape plant response rating,rape; [3],0
same,Rape plant response rating,rape; [4],10
same,Rape plant response rating,rape; [5],0
same,Rape plant response rating,rape; [6],0
same,Rape plant response rating,rape; [7],2
same,"Plant response rating, Rape",rape; [8],3
same,Cocklebur plant response rating,cocklebur; [1],0
same,Cocklebur plant response rating,cocklebur; [2],0
same,Cocklebur plant response rating,cocklebur; [3],0
same,Cocklebur plant response rating,cocklebur; [4],0
same,Cocklebur plant response rating,cocklebur; [5],0
same,Cocklebur plant response rating,cocklebur; [6],0
same,Cocklebur plant response rating,cocklebur; [7],0
same,"Plant response rating, Cocklebur",cocklebur; [8],0
same,Rice plant response rating,rice; [9],0
same,Rice plant response rating,rice; [10],0
same,Rice plant response rating,rice; [11],0
same,Rice plant response rating,rice; [12],0
same,S. Flatsedge plant response rating,smallflower flatsedge; [9],0
same,S. Flatsedge plant response rating,smallflower flatsedge; [10],0
same,S. Flatsedge plant response rating,smallflower flatsedge; [11],0
same,S. Flatsedge plant response rating,smallflower flatsedge; [12],0
same,Sugarbeets plant response rating,sugar beet; [1],0
same,Sugarbeets plant response rating,sugar beet; [2],0
same,Sugarbeets plant response rating,sugar beet; [3],0
same,Sugarbeets plant response rating,sugar beet; [4],3
same,Sugarbeets plant response rating,sugar beet; [5],0
same,Sugarbeets plant response rating,sugar beet; [6],0
same,Sugarbeets plant response rating,sugar beet; [7],0
same,"Plant response rating, Sugarbeets",sugar beet; [8],0
same,Bedstraw plant response rating,bedstraw; [1],0
same,Bedstraw plant response rating,bedstraw; [2],0
same,Bedstraw plant response rating,bedstraw; [3],0
same,Bedstraw plant response rating,bedstraw; [4],0
same,Bedstraw plant response rating,bedstraw; [5],0
same,Bedstraw plant response rating,bedstraw; [6],4
same,Bedstraw plant response rating,bedstraw; [7],0
same,"Plant response rating, Bedstraw",bedstraw; [8],4
same,Giant foxtail plant response rating,giant foxtail; [1],0
same,Giant foxtail plant response rating,giant foxtail; [2],8
same,Giant foxtail plant response rating,giant foxtail; [3],8
same,Giant foxtail plant response rating,giant foxtail; [4],10
same,Giant foxtail plant response rating,giant foxtail; [5],0
same,Giant foxtail plant response rating,giant foxtail; [6],6
same,Giant foxtail plant response rating,giant foxtail; [7],10
same,"Plant response rating, Giant foxtail",giant foxtail; [8],9
same,Wheat plant response rating,wheat; [1],0
same,Wheat plant response rating,wheat; [2],0
same,Wheat plant response rating,wheat; [3],0
same,Wheat plant response rating,wheat; [4],6
same,Wheat plant response rating,wheat; [5],0
same,Wheat plant response rating,wheat; [6],0
same,Wheat plant response rating,wheat; [7],3
same,"Plant response rating, Wheat",wheat; [8],3

# Source: patent US6737383B1, “Herbicidal oxadiazolidines” (priority 1999, dated 2004)
